According to patent US9346832B2, “Gold complexes for use in the treatment of cancer” (University of Kwazulu-Natal, priority 2010, dated 2016):
Read-outs that look alike come from different tables or passages of the source.

Key:
[1] = system: panel of human cancer cell lines; details: cited from earlier work
[2] = system: 60 human cancer cell lines; experiment: NCI-60 one-dose screen; type: cell-based; details: single dose 10 μM
Protocol: (§1) The gold(III) complexes of this invention were screened by the National Cancer Institute (NCI, USA) against their panel of 60 different human cancer cell lines. These screens initially entail a one-dose test for the compound at a high concentration (10 μM; e.g. FIGS. 5, 6 and 7). Compounds with a good cytotoxicity profile in the one-dose screen are then subjected to a five-dose screen for the full panel of sixty human cancer cell lines (the so-called 5-dose NCI-60 screen). In the full five-dose screen, the compound concentration is varied in five doses from 10^−8 M to 10^−4 M in order to establish a dose-response function of percentage cell growth versus the concentration of the test agent. […] Similar data will shortly be available for compounds 1.1Y^1b and 1.5Y^1a as these derivatives are in 5-dose screens currently at the NCI.
The results of one-dose NCI-60 screens are noteworthy and merit some discussion as they quickly indicate activity profiles, cell-line specificity, and general cytotoxicity for the test agents across multiple human cancer cell lines. FIGS. 5, 6, and 7 set out the one-dose screening results for MA_AuPr (FIG. 5), KA_AumacroPr (FIG. 6), and KA_AuMelmPr (FIG. 7) obtained by the NCI. These three compounds are the parent derivatives that are representative of the three new types of gold(III) Schiff base chelate relevant to this invention. All other compounds synthesized as part of this invention have been similarly analyzed.

[3] = target: topoisomerase II (topo II) (Homo sapiens, UniProt P11388); experiment: Topoisomerase II (topo II) DNA cleavage assay with kinetoplast DNA, agarose gel; type: biochemical
Protocol: FIG. 18 is a photograph of an agarose gel electrophoresis topoisomerase II (topo II) DNA cleavage assay (66 ng kinetoplast DNA, 4 U topo II) as a function of the concentration of KA_AumacroPr (complex 1.1Y^1a) (top) and a graph of a standard dose-response function fit of the experimental titration data (top gel) with (solid line) and without (dashed line) a Hill coefficient. The maximum ESD from triplicate measurements is shown (15%). Lanes 1-4 of the gel contain catenated DNA (no topo II), decatenated DNA (topo II present), decatenated DNA (solvent control), and linear DNA, respectively. The lane marked VP-16 contained DNA, topo II, and etoposide (VP-16). Band labels: I, catenated DNA; II, open-circular (OC) DNA; III, linear DNA; IV, closed-covalently circular (CCC) DNA. […]
The topo II inhibition assay for the Au(III) macrocycle KA_AumacroPr is shown above in FIG. 18.

topoisomerase I = target: T1, topoisomerase I (Homo sapiens, UniProt P11387); experiment: Supercoiled plasmid DNA relaxation assay with human topoisomerase I; type: biochemical
T1 sequence (P11387 1-765): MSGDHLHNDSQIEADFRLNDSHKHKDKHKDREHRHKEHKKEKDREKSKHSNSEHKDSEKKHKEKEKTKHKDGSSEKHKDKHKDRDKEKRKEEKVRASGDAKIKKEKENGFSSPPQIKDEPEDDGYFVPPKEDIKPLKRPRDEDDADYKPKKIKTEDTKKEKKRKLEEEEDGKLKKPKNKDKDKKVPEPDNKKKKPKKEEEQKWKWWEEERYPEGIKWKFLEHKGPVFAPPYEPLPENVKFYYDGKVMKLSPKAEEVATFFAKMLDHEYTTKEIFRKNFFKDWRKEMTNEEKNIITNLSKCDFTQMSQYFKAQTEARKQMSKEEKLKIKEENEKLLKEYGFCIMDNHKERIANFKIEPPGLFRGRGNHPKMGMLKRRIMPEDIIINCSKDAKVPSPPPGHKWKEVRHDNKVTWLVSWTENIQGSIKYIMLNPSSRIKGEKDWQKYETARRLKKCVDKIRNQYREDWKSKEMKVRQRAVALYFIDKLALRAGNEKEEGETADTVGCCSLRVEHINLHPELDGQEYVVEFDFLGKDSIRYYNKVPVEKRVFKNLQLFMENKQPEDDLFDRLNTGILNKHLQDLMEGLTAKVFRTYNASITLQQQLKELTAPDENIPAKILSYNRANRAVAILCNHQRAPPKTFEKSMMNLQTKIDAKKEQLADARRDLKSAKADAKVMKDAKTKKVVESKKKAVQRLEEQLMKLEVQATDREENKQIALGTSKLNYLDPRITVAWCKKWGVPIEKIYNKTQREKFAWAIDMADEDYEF
Protocol: FIG. 19 is a photograph of a gel showing the inhibition of human topoisomerase I by KA_AumacroPr as determined by supercoiled plasmid DNA relaxation assay (agarose gel electrophoresis).
Lanes 2-12 have 5U of topoisomerase I. The enzyme fully relaxes supercoiled (SC) DNA in lanes 3-8 for KA_AumacroPr concentrations ranging from 0-50 nM.
This is consistent with strong intercalative binding of KA_AumacroPr to the plasmid DNA probably before and after the action of topoisomerase I, and consequently inhibition of its normal turnover cycle.

[4] = system: 60 human cancer cell lines; details: comparison drugs, NCI database, mean over 60 cell lines, cited from earlier work
[5] = system: 3LL tumor (Lewis lung carcinoma); experiment: 3LL tumor growth in black mice; details: 20 days, 26 μmol/kg once weekly
HeLa cells = experiment: HeLa cell cytotoxicity dose-response; type: cell-based
Protocol: FIG. 9 is a graph of the dose-response curves (HeLa cells, pH 7.0, 37° C.) for three macrocyclic Au(III) chelates. IC50 values for the complexes against HeLa cells obtained from the least squares data fits (graph) are given in the 3rd column of the table.
A summary of the average cytotoxicity data over 60 human cancer cell lines for 1.1a-1.1c and comparison with selected commercial and patented cytotoxic agents is shown in Scheme 7. […] The more abrupt the curve, the harder the dose-response function.

calf thymus DNA = experiment: Calf-thymus DNA titration (absorption hypochroism); type: binding
Protocol: FIG. 20 is a graph of the titration of MA_AuPr (1.1a) with calf-thymus DNA in aqueous pH 7 phosphate buffer at 37° C.
The hypochroism of the absorption band of the complex at 383 nm was monitored as a function of added ctDNA. […] Ka is the equilibrium binding constant in M^−1, Ct is the total Au(III) complex concentration, and s is the binding site size.

human cancer cell lines = experiment: Cytotoxicity summary (NCI-60 or independent cytotoxicity screen), Scheme 19; type: cell-based
[6] = Hydrolysis in aqueous solution; type: physicochemical; details: aqueous / phosphate buffered aqueous solutions
Description: This is why binding to DNA of the intact chelate occurs (FIGS. 14 and 20). However, it is noteworthy that hydrolysis of a Au(III)-Npyrrole bond is a reaction that may be catalyzed by enzymes in plasma and could account for the plasma instability of MA_AuPr.

[7] = system: 60 human cancer cell lines; experiment: NCI-60 five-dose screen, mean cytotoxicity over 60 human cancer cell lines; type: cell-based; details: mean over 60 human cancer cell lines
Protocol: as §1
The mean cytotoxicity data summarized in Scheme 7 were compiled over 60 human cancer cell lines from the NCI database. […] The dose-response curves for the bis(pyrrolide-imine) chelates of the invention are steeper, or harder, than those of all the compounds compared in Scheme 7.

Sequence of topoisomerase II (topo II) (P11388 whole entry): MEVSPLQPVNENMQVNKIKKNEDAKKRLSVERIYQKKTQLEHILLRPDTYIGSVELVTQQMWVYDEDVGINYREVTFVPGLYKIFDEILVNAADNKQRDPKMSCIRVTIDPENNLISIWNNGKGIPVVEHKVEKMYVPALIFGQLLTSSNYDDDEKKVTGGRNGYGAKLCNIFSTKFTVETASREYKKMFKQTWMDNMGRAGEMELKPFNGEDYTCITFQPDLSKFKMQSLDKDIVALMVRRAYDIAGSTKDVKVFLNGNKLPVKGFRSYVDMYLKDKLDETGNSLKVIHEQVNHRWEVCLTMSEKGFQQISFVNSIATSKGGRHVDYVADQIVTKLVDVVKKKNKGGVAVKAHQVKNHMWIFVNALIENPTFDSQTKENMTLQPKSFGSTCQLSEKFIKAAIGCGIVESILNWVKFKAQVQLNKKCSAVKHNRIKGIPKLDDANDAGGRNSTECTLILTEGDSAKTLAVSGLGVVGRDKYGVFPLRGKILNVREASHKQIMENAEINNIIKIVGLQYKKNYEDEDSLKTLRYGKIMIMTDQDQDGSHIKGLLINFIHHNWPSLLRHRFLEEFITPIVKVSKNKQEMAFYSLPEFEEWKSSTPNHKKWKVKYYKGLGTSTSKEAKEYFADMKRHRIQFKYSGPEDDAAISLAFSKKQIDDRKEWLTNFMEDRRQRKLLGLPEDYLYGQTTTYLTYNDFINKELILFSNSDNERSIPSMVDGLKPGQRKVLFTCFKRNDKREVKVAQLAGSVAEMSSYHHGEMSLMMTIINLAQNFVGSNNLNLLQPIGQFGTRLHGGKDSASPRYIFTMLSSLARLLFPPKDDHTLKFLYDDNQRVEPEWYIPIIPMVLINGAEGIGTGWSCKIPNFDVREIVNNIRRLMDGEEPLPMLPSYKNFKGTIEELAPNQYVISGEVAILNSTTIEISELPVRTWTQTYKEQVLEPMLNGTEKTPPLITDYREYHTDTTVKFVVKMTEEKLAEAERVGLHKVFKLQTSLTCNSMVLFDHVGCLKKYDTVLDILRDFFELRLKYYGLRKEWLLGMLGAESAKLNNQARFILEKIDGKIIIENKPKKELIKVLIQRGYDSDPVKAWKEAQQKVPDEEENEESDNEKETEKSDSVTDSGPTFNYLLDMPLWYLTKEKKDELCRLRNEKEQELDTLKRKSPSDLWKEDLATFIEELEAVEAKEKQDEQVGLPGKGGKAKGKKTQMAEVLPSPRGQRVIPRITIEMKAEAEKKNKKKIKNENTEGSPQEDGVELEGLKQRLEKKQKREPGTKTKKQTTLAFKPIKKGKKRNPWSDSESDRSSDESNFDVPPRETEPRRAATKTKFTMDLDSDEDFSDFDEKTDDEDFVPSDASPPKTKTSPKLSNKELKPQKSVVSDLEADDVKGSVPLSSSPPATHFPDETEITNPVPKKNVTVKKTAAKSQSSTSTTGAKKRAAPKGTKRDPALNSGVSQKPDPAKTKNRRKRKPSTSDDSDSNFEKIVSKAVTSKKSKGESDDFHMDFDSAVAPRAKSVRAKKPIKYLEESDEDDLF

## C1=Cc2nc1c(-c1ccccc1)c1ccc([nH]1)c(-c1ccccc1)c1nc(c(-c3ccccc3)c3ccc([nH]3)c2-c2ccccc2)C=C1 [[Zn^II(TPP)]]
[1]; literature values
  IC50: > 50 µM

## C1=[N+]2CCC[N+]3=Cc4ccc5[n]4[Au-]23[n]2c1ccc2-c1nc2ccccc2nc1-5.F[P-](F)(F)(F)(F)F [KA_AumacroPr, {12,13-dihydro-14H-6,9:17,20-diepimino[1,6]diazacyclo-heptadecino[12,13-β]quinoxalinato}gold(III) hexafluorophosphate(V)]
[2]
  one-dose screening result: good cytotoxicity for the majority of the cell lines
[3]; 66 ng kinetoplast DNA, 4 U topo II, read-out: IC50 (enzyme inhibition)
  IC50: 4.8 µM
[3]; no trapped linear DNA cleavage products
  action on topo II: pure catalytic inhibitor
Topoisomerase I
  action on human topoisomerase I: interferes with the normal operation of human topoisomerase I
Topoisomerase I; 5U topoisomerase I
  concentrations at which the enzyme fully relaxes supercoiled DNA: 0 to 50 nM
Topoisomerase I; 5U topoisomerase I, up to 500 μM
  concentrations at which topoisomerase I exhibits abnormal and incomplete substrate relaxation: ≥ 500 nM

## N.N.[Cl][Pt][Cl] [cisplatin, cis-[PtCl2(NH3)2]]
[4]; 50% growth inhibition
  GI50: 2 µM
[4]; read-out: TGI or IC50, total growth inhibition
  IC50: 27 µM
[5]
  reduction of 3LL tumor growth rate: 76%

## C1=Cc2nc1c(-c1ccccc1)c1ccc([n-]1)c(-c1ccccc1)c1nc(c(-c3ccccc3)c3ccc([n-]3)c2-c2ccccc2)C=C1.[Au+3].[Cl-] [[Au(TPP)]Cl]
[1]; MTT assay, PBMCs and CCD-19Lu cells
  cytotoxicity to cancer cells versus non-cancerous cells: at least ten-fold higher cytotoxicity

## ClC1CN=Cc2ccc3[n]2[Au+][n]2c(ccc2-c2nc4ccccc4nc2-3)C=NC1.F[P-](F)(F)(F)(F)F (stereo not drawn) [Compound 1.1Y^1e, {13-chloro-12,14-dihydro-6,9:17,20-diepimino[1,6]diazacyclo-heptadecino[12,13-β]quinoxalinato}gold(III) hexafluorophosphate(V)]
HeLa cells
  GI50: ~0.1 µM
HeLa cells; pH 7.0, 37° C.
  IC50: ~3 µM
Topoisomerase I; listed as 1.1Y^1b
  action on human topoisomerase I: catalytic inhibitor of human topoisomerase I
Calf thymus DNA; KA series: pH 7.0 15% DMSO-TRIS buffer at 25° C., listed as 1.1Y^1a
  Ka (calf thymus DNA): 2.8(2) × 10^6 M^−1
Calf thymus DNA; KA series: pH 7.0 15% DMSO-TRIS buffer at 25° C., listed as 1.1Y^1b
  Ka (calf thymus DNA): 1.49(8) × 10^6 M^−1
Human cancer cell lines
  Cytotoxicity: active

## 4,4′-{propane-1,3-diylbis[nitrilo(E)methylylide]}bis(5-methylimidazol-1-ide)gold(III) hexafluorophosphate(V) [KA_AuMelmPr]
[2]
  one-dose screening result: Breast and leukemia cell lines were, as a group, the most sensitive

## C1=[N+]2CC[N+]3=Cc4ccc[n]4[Au-]23[n]2cccc21.F[P-](F)(F)(F)(F)F [Compound 1.2a, 2,2′-{ethane-1,2-diylbis[nitrilo(E)methylylidene]}bis(pyrrol-1-ido)gold(III) hexafluorophosphate(V)]
[6]
  hydrolysis: water may displace a pyrrole ring from the Au(III) ion

## F[P-](F)(F)(F)(F)F.OC1CN=Cc2ccc[n]2[Au+][n]2cccc2C=NC1 (stereo not drawn) [MA_AuOH, 2,2{(2-hydroxypropane-1,3-diyl)bis[nitrilo(E)methyl-ylidene]}bis(pyrrol-1-ido)gold(III) hexafluorophosphate(V)]
[7]; 50% cell death, read-out: LC50 (the source's name)
  CC50: > 100 µM
[7]; 50% growth inhibition
  GI50: > 100 µM
[7]; 100% (total) growth inhibition, read-out: TGI or IC50
  TGI (concentration for total growth inhibition): > 100 µM
[2]
  one-dose screening result: not sufficiently active
Calf thymus DNA; MA series: pH 7.0 phosphate buffer at 37° C.
  Ka (calf thymus DNA): 1.43(3) × 10^5 M^−1
